Values of other authors in patent US20050032876A1, “Pharmaceutical compositions comprising sumatriptan and metoclopramide, and methods of use thereof” (priority 2003, published 2005).

Details: rapidly pre-systemically metabolized; very short half-life of the order of only about 2 hours

CNS(=O)(=O)Cc1ccc2[nH]cc(CCN(C)C)c2c1 [Sumatriptan]
half-life: about 2 hours
